# Test results published in article PMC8498988, “Scaffold Hybridization Strategy Leads to the Discovery of Dopamine D3 Receptor-Selective or Multitarget Bitopic Ligands Potentially Useful for Central Nervous System Disorders” (ACS Chemical Neuroscience, 2021).
# Legend:
# [1] = molecular target: T1, human D1R (Homo sapiens, UniProt P21728); test: Radioligand binding assay at human D1R ([3H]SCH23390, mouse fibroblast LhD1 cells); conditions: [3H]SCH23390, mouse fibroblast cells expressing hD1R; read-out: Ki ± SEM, D1R
# T1 construct: expressed in transfected cells; host or cells: mouse fibroblast cells (LhD1)
# T1 sequence (P21728 whole entry): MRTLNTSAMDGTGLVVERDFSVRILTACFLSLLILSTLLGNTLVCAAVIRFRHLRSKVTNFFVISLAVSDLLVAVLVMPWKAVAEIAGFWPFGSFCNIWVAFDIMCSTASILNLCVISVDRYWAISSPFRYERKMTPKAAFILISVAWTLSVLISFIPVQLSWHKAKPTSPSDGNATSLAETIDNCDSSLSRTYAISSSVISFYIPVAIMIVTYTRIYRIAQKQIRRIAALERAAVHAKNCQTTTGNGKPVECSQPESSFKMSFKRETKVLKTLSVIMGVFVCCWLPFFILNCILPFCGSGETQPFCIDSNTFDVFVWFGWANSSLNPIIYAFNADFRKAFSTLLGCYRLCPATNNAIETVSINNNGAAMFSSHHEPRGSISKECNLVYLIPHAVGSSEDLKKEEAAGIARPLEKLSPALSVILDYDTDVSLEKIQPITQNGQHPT
# Description: Mouse fibroblast cells expressing the human D1R at high density (LhD1 cells) are used. The cells are grown to confluence in DMEM containing 10% FetalClone1 serum (FCS, HyClone), 0.05% penicillin–streptomycin (pen-strep), and 400 μg/mL of Geneticin (G418). Three confluent 150 mm plates yield enough membranes for three assay plates with ∼10–15 μg protein per well. The cells from three 150 mm plates are scraped and centrifuged at 500×g for 5 min. The pellet is overlaid with 2 mL assay buffer (50 mM Tris–HCl containing 120 mM NaCl, 5 mM KCl, 2 mM CaCl2, and 1 mM MgCl2) and frozen at −70 °C. On the day of experiment, the pellet is homogenized in 30 mL assay buffer with a polytron. Cell homogenate (100 μL) is added to wells containing 800 μL of test drug or buffer. After a 10 min preincubation, 100 μL of [^3H]SCH-23390 (0.18 nM final concentration) is added. The plates are incubated at 25 C for 60 min. The reaction is terminated by filtration using a Tomtec 96 well harvester, and the radioactivity on the filters is determined using a PerkinElmer microbeta scintillation counter. Nonspecific binding is determined with 1 μM SCH-23390.
# [2] = molecular target: D2R (Homo sapiens, UniProt P14416); test: Radioligand competition binding at human D2R ([3H]N-methylspiperone, HEK293 membranes); design: expressed in transfected cells; host or cells: HEK293; conditions: HEK 293 cells expressing hD2R, read-out: Ki ± SEM, D2R
# Sequence of D2R (P14416 whole entry): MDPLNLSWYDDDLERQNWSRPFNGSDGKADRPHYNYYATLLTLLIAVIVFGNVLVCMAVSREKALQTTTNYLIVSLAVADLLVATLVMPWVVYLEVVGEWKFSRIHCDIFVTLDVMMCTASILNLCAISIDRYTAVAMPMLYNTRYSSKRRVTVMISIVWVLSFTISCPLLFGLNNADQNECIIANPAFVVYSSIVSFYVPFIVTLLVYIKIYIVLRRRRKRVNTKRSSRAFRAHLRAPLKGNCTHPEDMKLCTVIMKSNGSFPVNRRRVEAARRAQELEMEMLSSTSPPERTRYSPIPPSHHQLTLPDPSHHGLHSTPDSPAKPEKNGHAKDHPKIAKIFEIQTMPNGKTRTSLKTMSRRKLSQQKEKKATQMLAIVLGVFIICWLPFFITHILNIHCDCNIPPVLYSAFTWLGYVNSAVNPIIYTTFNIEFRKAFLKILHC
# Description: The novel hybrid derivatives 3–11 were tested at hD2R, hD3R, or hD4R stably expressed in HEK293 cells by competition binding assays, using [^3H]N-methylspiperone as the radioligand, to evaluate their D2-like affinity and subtype selectivity, following the previously reported procedures.[41],[45],[46]
# Binding at dopamine D2-like receptors was determined using previously described methods.[41],[45],[46] Membranes were prepared from HEK293 cells stably expressing human D2, D3, or D4, grown in a 50:50 mix of Dulbecco’s minimal essential medium (DMEM) and Ham’s F12 culture media, supplemented with 20 mM HEPES, 2 mM L-glutamine, 0.1 mM nonessential amino acids, 1× antibiotic/antimycotic, 10% heat-inactivated fetal bovine serum, and 200 μg/mL hygromycin (Life Technologies, Grand Island, NY) and kept in an incubator at 37 °C and 5% CO2. Upon reaching 80–90% confluency, the cells were harvested using premixed Earle’s Balanced Salt Solution (EBSS) with 5 μM EDTA (Life Technologies) and centrifuged at 3000 rpm for 10 min at 21 °C. The supernatant was removed, and the pellet was resuspended in 10 mL hypotonic lysis buffer (5 mM MgCl2, 5 mM Tris, pH 7.4 at 4 °C) and centrifuged at 20,000 rpm for 30 min at 4 °C. The pellet was then resuspended in fresh EBSS buffer made from 8.7 g/L Earle’s Balanced Salts without phenol red (US Biological, Salem, MA), 2.2 g/L sodium bicarbonate, pH to 7.4. A Bradford protein assay (Bio-Rad, Hercules, CA) was used to determine the protein concentration, and membranes were diluted to 500 μg/mL and stored at −80 °C for later use. Radioligand competition binding experiments were conducted using thawed membranes. Test compounds were freshly dissolved in 30% DMSO and 70% H2O to a stock concentration of 100 μM. To assist the solubilization of free-base compounds, 10 μL of glacial acetic acid was added along with DMSO. Each test compound was then diluted into 13 half-log serial dilutions using 30% DMSO vehicle; the final test concentrations ranged from 10 μM to 10 pM. The previously frozen membranes were diluted in fresh EBSS to a 100 μg/mL (for D2 or D3) or 200 μg/mL (D4) stock for binding. Radioligand competition experiments were conducted in glass tubes containing 300 μL of fresh EBSS buffer, 50 μL of diluted test compound, 100 μL of membranes (10 μg of total protein for D2 or D3 and 20 μg of total protein for D4), and 50 μL of [^3H]N-methylspiperone (0.4 nM final concentration; PerkinElmer). Nonspecific binding was determined using 10 μM butaclamol (Sigma-Aldrich, St. Louis, MO), and total binding was determined with the 30% DMSO vehicle. All compound dilutions were tested in triplicate and the reaction was incubated for 1 h at room temperature. The reaction was terminated by filtration through Whatman GF/B filters, presoaked for 1 h in 0.5% polyethylenimine, using a Brandel R48 filtering manifold (Brandel Instruments, Gaithersburg, MD). The filters were washed three times with 3 mL of ice-cold EBSS buffer and transferred to scintillation vials. CytoScint liquid scintillation cocktail (3 mL, MP Biomedicals, Solon, OH) was added, and vials were counted using a PerkinElmer Tri-Carb 2910 TR liquid scintillation counter (Waltham, MA).
# [3] = molecular target: D3R (Homo sapiens, UniProt P35462); test: D3 mitogenesis functional assay (CHOp-D3 cells); format: cell-based; design: expressed in transfected cells; host or cells: CHOp-D3 cells; conditions: for EC50 / % stimul., D3 mitogenesis assay: agonist mode; for % stimul., D3 mitogenesis assay: standard agonist quinpirole; for IC50 / % inhibition (efficacy), D3R when tested as an antagonist: antagonist mode; for IC50: inhibition of quinpirole stimulation of mitogenesis, read-out: IC50, D3R when tested as an antagonist; for % inhibition (efficacy), D3R when tested as an antagonist: standard antagonist NGB 2904; for functional behavior at D3R: in words
# Sequence of D3R (P35462 whole entry): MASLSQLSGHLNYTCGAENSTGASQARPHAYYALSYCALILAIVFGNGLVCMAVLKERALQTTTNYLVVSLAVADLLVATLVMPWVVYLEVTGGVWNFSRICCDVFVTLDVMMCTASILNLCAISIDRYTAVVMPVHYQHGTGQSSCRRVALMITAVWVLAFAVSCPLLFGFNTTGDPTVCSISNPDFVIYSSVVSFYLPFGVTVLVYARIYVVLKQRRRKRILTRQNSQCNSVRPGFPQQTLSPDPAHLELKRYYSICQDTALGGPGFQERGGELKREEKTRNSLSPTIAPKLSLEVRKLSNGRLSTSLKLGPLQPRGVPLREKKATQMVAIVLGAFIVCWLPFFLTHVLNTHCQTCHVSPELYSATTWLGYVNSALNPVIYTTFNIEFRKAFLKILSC
# Description: CHOp-D2 and CHOp-D3 cells are maintained in α-MEM with 10% fetal bovine serum (FBS, Atlas Biologicals), 0.05% pen-strep, and 400 μg/mL of G418. […] The cells are incubated at 37 °C in α-MEM with 10% FBS. After 48–72 h, the cells are rinsed twice with serum-free α-MEM and incubated for 24 h at 37 °C. Serial dilutions of test compounds are made by the Biomek robotics system in serum-free α-MEM. In the functional assay for agonists, the medium is removed and replaced with 100 μL of test compound in serum-free α-MEM. In the antagonist assay, the serial dilution of the putative antagonist test compound is added in 90 μL (1.1× of final concentration) and 300 nM quinpirole (30 nM final) is added in 10 μL. After another 24 h (D2) or 16 h (D3) incubation at 37 °C, 0.25 μCi of [^3H]thymidine in αMEM supplemented with 10% FBS is added to each well, and the plates are further incubated for 2 h at 37 °C. The cells are trypsinized by addition of 10× trypsin solution (1% trypsin in calcium–magnesium-free phosphate-buffered saline), and the plates are filtered and counted as usual. Quinpirole is run each day as an internal control, and dopamine is included for comparative purposes.
Compound,Ki [1],Ki [2],EC50 [3],"% stimul., D3 mitogenesis assay [3]",IC50 [3],"% inhibition (efficacy), D3R when tested as an antagonist [3]",functional behavior at D3R [3]
"O=C(NCCCCN1CCN(c2cccc(Cl)c2Cl)CC1)C1COC(c2ccccc2)(c2ccccc2)CO1 (stereo not drawn) [compound 6, N-(4-(4-(2,3-Dichlorophenyl)piperazin-1-yl)butyl)-5,5-diphenyl-1,4-dioxane-2-carboxamide]",700 ± 150 nM,28.7 ± 5.4 nM,2.72 nM,25.7%,6.6 nM,64.0%,"D3R and 5-HT2CR partial agonists with high and low potency, respectively"
"O=C(NCCCCN1CCN(c2cccc(Cl)c2Cl)CC1)C1COc2ccccc2O1 (stereo not drawn) [compound 9, N-(4-(4-(2,3-Dichlorophenyl)piperazin-1-yl)butyl)-2,3-dihydrobenzo[b][1,4]dioxine-2-carboxamide]",680 ± 160 nM,46.4 ± 5.9 nM,5 ± 1.7 nM,34.0%,40.4 nM,64.2%,"D3R and 5-HT2CR partial agonists with high and low potency, respectively"
"O=C(NCCCCN1CCN(c2cccc(Cl)c2Cl)CC1)C1COCC(c2ccccc2)(c2ccccc2)O1 (stereo not drawn) [compound 3, N-(4-(4-(2,3-Dichlorophenyl)piperazin-1-yl)butyl)-6,6-diphenyl-1,4-dioxane-2-carboxamide]",442 ± 52 nM,342 ± 105 nM,9.8 ± 1.6 nM,36%,38 nM,82.7%,partial agonist
